Laboratory results from patent publication US20090023666A1, “Modulators of Hypoxia Inducible Factor-1 and Related Uses” (priority 2006, published 2009).
“Also recorded” adds a separate entry of the source. Like-named read-outs stand apart in the source and are kept apart here.

Columns and labels:
P388 = test: Anti-proliferative activity, P388; type: cell-based; settings: Mus musculus
Procedure: (§1) FIG. 8 is a graph depicting the mRNA levels of α-1 and α-3 isoforms quantitated by real time RT-PCR (TaqMan) using fluorescent labeled TaqMan probes. Anti-proliferation (IC50 values) activity of BNC4 on indicated cell lines was determined by MTS assay. Total alpha levels (al+a3) were plotted against (1/IC50) X100 values.

DU145 = test: Anti-proliferative activity, DU145; type: cell-based; settings: Homo sapiens
Procedure: as §1

Panc-1 (PANC) = test: Anti-proliferative activity (APA), Panc-1; type: cell-based; settings: Homo sapiens
Procedure: as §1

HOP-18 = test: Anti-proliferative activity, HOP-18; type: cell-based; settings: Homo sapiens
Procedure: as §1

[1] = tested on: HIF-1α sensitive A549 sentinel line; test: HIF-1α sensitive A549 sentinel line reporter activity (FACS); type: cell-based; settings: 24 hours, 5 nM (FIG. 4)
Procedure: FIGS. 4A-4D are graphs depicting FACS analysis of beta-gal activity in an A549 sentinel line treated with 5 nM of BNC4 (FIG. 4A), BP228 (FIG. 4B), and BP244 (FIG. 4C) in comparison to vehicle only (shown as the shaded portion of the graph) for 24 hours. The graphs indicate frequency of cells (Y-axis) and intensity of fluorescence (X-axis) as measure of pathway activity. The bar chart (FIG. 4D) depicts the relative median fluorescent units of FACS curves.
By using the HIF-1α sensitive A549 sentinel line, the cell line was incubated with either BNC4, BP228 or BP244 for 24 hours and reporter activity was measured by FACS analysis.

HIF-1α [2] = test: Inhibition of hypoxia-mediated HIF-1α induction (immunoblotting); type: cell-based, human; settings: Caki-1 or Panc-1 cells under hypoxia
[3] = Pharmacokinetics following IP administration in mice; type: in vivo; settings: for tlast / Tmax: i.p.; for half-life: read-out: t1/2 (terminal elimination half-life) (converted)
Procedure: FIG. 13 is a graph depicting the pharmacokinetic profiled of BNC4, BP228 and BP244 in mice. The compounds were administered by intraperitoneal (i.p) injection at 2.5 mg/kg and 5.0 mg/kg for BP228 and at 5.0 mg/kg for BNC4 and BP244. The plasma samples were collected at various time points and concentration of compounds was analyzed by LC-MS. Pharmacokinetic parameters are provided in Example 23.
The compounds were administered by intraperitoneal (i.p) injection at 2.5 mg/kg and 5.0 mg/kg for BP228 and at 5.0 mg/kg for BNC4 and BP244. The plasma samples were collected at various time points and concentration of compounds was analyzed by LC-MS.

HT29 = test: Anti-proliferative activity, HT29; type: cell-based; settings: Homo sapiens
Procedure: as §1

786-O = test: Anti-proliferative activity, 786-O; type: cell-based; settings: Homo sapiens
Procedure: as §1

[4] = cited from earlier work
HIF-1α [5] = test: Inhibition of HIF-1α induced under normoxia by PHD inhibitor L-mimosone (Western blotting); type: cell-based; settings: Hep3B cells, 200 μM L-mimosone 18 hours
Procedure: Abundance of HIF1α and β-actin was determined by Western blotting.

Caki-1 tumors = test: In vivo activity against renal cancer cell line Caki-1 xenograft; settings: Caki-1 bearing nude mice
Procedure: Female nude mice (nu/nu) between 5 and 6 weeks of age weighing approximately 20 g were implanted subcutaneously (s.c.) by trocar with fragments of human tumors harvested from s.c. grown tumors in nude mice hosts. When the tumors were approximately 60-75 mg in size (about 10-15 days following inoculation), the animals were pair-matched into treatment and control groups. Each group contained 8-10 mice. The administration of drugs or controls began on the day the animals were pair-matched (Day 1). Pumps (Alzet® Model 2002) with a flow rate of 0.5 μl/hr were implanted s.c. between the shoulder blades of each mice. Mice were weighed and tumor measurements were obtained using calipers twice weekly, starting Day 1. These tumor measurements were converted to mg tumor weight by standard formula, (W^2XL)/2. The experiment was terminated when the control group tumor size reached an average of about 1 gram. Upon termination, the mice were weighed, sacrificed and their tumors excised. The tumors were weighed and the mean tumor weight per group was calculated.

Na-K-ATPase = Na-K-ATPase enzyme assay (inorganic phosphate liberated from ATP), pig brain; type: biochemical; settings: pig brain
Procedure: Compounds were tested for their activity on Na-K-ATPase enzyme in an in vitro enzyme assay. The ATPase activity was assayed as the amount of inorganic phosphate liberated from ATP by Dog Kidney or Porcine cerebral cortex Na-K-ATPase.

[6] = mouse, plasma, ip, 5 mg/kg, 5 mg/kg, read-out: tmax
[7] = P388, read-out: Anti-Proliferative activity IC50
[8] = DU-145, read-out: Anti-Proliferative activity IC50
[9] = PANC-1, read-out: Anti-Proliferative activity IC50
[10] = HOP-18, read-out: Anti-Proliferative activity IC50
[11] = HT-29, read-out: Anti-Proliferative activity IC50
[12] = 786-0, read-out: Anti-Proliferative activity IC50

In the case of `C[C@@H]1O[C@@H](O[C@@H]2C=C3CC[C@@H]4[C@H](CC[C@]5(C)[C@@H](c6ccc(=O)oc6)CC[C@]45O)[C@@]3(C)CC2)[C@H](O)[C@H](O)[C@H]1O` [BNC4, proscillaridin, reference compound], the IC50 (P388; P388, Leukemia, read-out: Anti-Proliferative activity IC50) is reported as greater than 1000 nM, the IC50 (DU145; DU-145, DU145, Prostate (AR-), read-out: Anti-Proliferative activity IC50) is reported as 6.2 nM and the IC50 (Panc-1 (PANC); PANC-1, PANC, Pancreatic, read-out: Anti-Proliferative activity IC50) is reported as 3.8 nM. For the same compound, the IC50 (HOP-18; HOP-18, NSCL, read-out: Anti-Proliferative activity IC50) was 9.2 nM, the “reporter activity in A549 sentinel line” value [1] was “active in inhibiting the reporter activity” and the “potency in inhibiting HIF-1α expression relative to BNC1” value (HIF-1α [2]) was “about 10 times”. For the same compound, the tlast ([3]; 5 mg/kg) was 6 h, the AUC ([3]; mouse, plasma, ip, 5 mg/kg) was 4570 ng·h/mL and the Cmax ([3]; mouse, plasma, ip, 5 mg/kg) was 3610 ng/mL. The Tmax [3, 6] was 15 min, the half-life ([3]; mouse, plasma, ip, 5 mg/kg) was 48 min and the IC50 (HT29; HT-29, HT29, Colon, read-out: Anti-Proliferative activity IC50) was 8.9 nM. The IC50 (786-O; 786-0, 786-O, Renal, read-out: Anti-Proliferative activity IC50) was 8.4 nM, the “plasma half-life in human” value ([4]; human, according to the literature) was “about 40 hours” and the max. plasma concentration ([4]; in vivo) was “about 0.1 μg/mL”. For the same compound, the “HIF-1α accumulation by L-mimosone” value (HIF-1α [5]) was “blocks HIF-1α induction; also recorded: eliminated HIF-1α accumulation by L-mimosone”.
With `C[C@]12CC/C(=N\OCCN3CCCCC3)C=C1CC[C@@H]1[C@@H]2CC[C@]2(C)[C@@H](c3ccc(=O)oc3)CC[C@]12O` [BP228] the IC50 (P388; [7]) was greater than 1000 nM, the IC50 (DU145; [8]) was 8.8 nM and the IC50 (Panc-1 (PANC); [9]) was 8.1 nM. The IC50 (HOP-18; [10]) was 18.9 nM, the “reporter activity in A549 sentinel line” value [1] was “active in inhibiting the reporter activity” and the tlast ([3]; 2.5 mg/kg) was 6 h. It also gave a tlast ([3]; 5 mg/kg) of 6 h, a Tmax ([3]; 5 mg/kg, listed as BNC228, 5 mg/kg) of 5 min and an AUC ([3]; mouse, plasma, ip, 2.5 mg/kg) of 1020 ng·h/mL. The Cmax ([3]; mouse, plasma, ip, 2.5 mg/kg) was 715 ng/mL, the Tmax ([3]; mouse, plasma, ip, 2.5 mg/kg, 2.5 mg/kg, read-out: tmax) was 10 min and the half-life ([3]; mouse, plasma, ip, 2.5 mg/kg) was 90 min. For the same compound, the AUC ([3]; mouse, plasma, ip, 5 mg/kg) was 2350 ng·h/mL, the Cmax ([3]; mouse, plasma, ip, 5 mg/kg) was 1200 ng/mL and the Tmax [3, 6] was 4.98 min. For the same compound, the half-life ([3]; mouse, plasma, ip, 5 mg/kg) was 114 min, the IC50 (HT29; [11]) was 18.9 nM and the IC50 (786-O; [12]) was 8.9 nM.
`C[C@@H]1O[C@@H](O[C@@H]2C=C3CC[C@@H]4[C@H](CC[C@]5(C)[C@@H](c6ccc(=O)oc6)CC[C@]45O)[C@@]3(C)CC2)[C@H](O)[C@H](O)[C@H]1N` [BP244] showed an IC50 (P388; [7]) greater than 1000 nM, an IC50 (DU145; [8]) of 6.7 nM and an IC50 (Panc-1 (PANC); [9]) of 6.6 nM. For the same compound, the IC50 (HOP-18; [10]) was 7.3 nM, the “reporter activity in A549 sentinel line” value [1] was “active in inhibiting the reporter activity” and the adverse effects (Caki-1 tumors; 15 mg/ml pump) was “without any adverse effects”. The “tumor growth inhibition (TGI)” value (Caki-1 tumors; 15 mg/ml, s.c. Alzet pump 0.5 μl/hr) was 83%, the tlast ([3]; 5 mg/kg) was 24 h and the AUC ([3]; mouse, plasma, ip, 5 mg/kg) was 4630 ng·h/mL. It also gave a Cmax ([3]; mouse, plasma, ip, 5 mg/kg) of 2120 ng/mL, a Tmax [3, 6] of 30 min and a half-life ([3]; mouse, plasma, ip, 5 mg/kg) of 270 min. For the same compound, the IC50 (HT29; [11]) was 8.2 nM, the IC50 (786-O; [12]) was 8 nM and the “activity on Na-K-ATPase relative to BP228” value (Na-K-ATPase) was “twice as active as BP228”. The IC50 (Na-K-ATPase; FIG. 9, read-out: IC50, Na-K-ATPase) was 98000 nM.
